Laboratory results reported in patent publication US7253171B2 (Laboratorios Almirall, S.A., priority 2001, dated 2007).
Read-outs that look alike come from different tables or passages of the source.

Assays:
[1] = biological target: T1, α4β7 integrin (Homo sapiens, UniProt P13612+P26010); assay: RPMI 8866 cell adhesion to mouse MAdCAM-1 (α4β7 binding assay); assay type: cell-based; conditions: RPMI 8866 cells, immobilized mouse MAdCAM-1
T1 construct: endogenous in cells; host or cells: RPMI 8866 cells
T1 sequence (P13612 34-1032): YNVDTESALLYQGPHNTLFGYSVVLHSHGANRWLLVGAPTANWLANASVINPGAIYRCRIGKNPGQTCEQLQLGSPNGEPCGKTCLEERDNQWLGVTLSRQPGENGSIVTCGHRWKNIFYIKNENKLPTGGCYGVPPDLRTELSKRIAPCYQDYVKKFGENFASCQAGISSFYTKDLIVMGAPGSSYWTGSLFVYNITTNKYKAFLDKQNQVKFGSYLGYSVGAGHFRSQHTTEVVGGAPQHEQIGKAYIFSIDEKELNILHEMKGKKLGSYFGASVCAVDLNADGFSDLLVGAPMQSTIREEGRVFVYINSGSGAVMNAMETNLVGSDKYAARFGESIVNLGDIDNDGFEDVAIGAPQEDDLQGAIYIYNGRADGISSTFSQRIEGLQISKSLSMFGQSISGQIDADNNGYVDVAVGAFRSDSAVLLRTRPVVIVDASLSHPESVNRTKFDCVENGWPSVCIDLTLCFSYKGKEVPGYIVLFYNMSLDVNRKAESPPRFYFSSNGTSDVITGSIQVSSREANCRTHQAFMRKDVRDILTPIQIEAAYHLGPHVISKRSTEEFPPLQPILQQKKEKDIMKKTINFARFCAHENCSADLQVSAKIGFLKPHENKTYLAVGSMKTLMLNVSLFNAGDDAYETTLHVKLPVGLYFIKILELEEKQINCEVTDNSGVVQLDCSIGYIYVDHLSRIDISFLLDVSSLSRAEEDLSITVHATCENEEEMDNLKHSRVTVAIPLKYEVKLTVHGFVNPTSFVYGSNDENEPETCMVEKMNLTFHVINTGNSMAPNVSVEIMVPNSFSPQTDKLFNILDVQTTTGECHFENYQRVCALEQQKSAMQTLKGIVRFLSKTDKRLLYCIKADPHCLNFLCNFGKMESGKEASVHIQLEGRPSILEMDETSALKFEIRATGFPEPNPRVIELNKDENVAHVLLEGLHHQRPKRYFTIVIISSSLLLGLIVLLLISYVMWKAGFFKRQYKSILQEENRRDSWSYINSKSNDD
T1 sequence (P26010 20-798): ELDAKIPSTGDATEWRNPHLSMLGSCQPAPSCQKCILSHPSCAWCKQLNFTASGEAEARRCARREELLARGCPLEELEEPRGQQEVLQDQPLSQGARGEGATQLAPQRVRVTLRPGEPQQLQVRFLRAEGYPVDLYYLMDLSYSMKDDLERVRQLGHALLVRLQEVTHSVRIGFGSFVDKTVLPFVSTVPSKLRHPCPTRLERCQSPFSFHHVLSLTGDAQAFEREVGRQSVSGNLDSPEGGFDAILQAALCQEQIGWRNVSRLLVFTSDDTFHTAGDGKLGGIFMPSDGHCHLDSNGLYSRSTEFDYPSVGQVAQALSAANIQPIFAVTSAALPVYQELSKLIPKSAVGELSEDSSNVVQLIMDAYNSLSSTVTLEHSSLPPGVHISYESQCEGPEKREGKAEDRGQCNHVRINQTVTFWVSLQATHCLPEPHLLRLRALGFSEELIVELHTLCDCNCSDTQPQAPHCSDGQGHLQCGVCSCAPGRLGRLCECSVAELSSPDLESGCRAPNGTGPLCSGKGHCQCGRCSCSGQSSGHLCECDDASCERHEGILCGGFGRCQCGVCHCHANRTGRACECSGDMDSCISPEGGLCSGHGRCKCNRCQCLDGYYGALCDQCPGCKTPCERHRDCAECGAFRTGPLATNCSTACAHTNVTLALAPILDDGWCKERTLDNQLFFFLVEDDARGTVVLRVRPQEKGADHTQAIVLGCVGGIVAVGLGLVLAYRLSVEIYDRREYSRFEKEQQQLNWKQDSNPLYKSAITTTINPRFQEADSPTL
Procedure: RPMI 8866 Cell Adhesion to Mouse MAdCAM-1 (α4β7 Binding Assay)
Recombinant mouse MAdCAM-1 was coated on a 96-well plate overnight. Unbound MAdCAM-1 was washed away and plates were blocked with 0,5% BSA. Cells were labelled with BCECF-AM and added to ligand-coated wells. Test compounds were added to the wells followed by RPMI 8866 and the adhesion assay was performed for 45 min at room temperature. Following incubation, the wells were emptied and washed. Inhibition of binding was measured by the quantity of fluorescence bound to the plate for each of the various concentrations of test compound, as well as for controls containing no test compound, with a Cytofluor 2300 fluorescence measurement system.

[2] = biological target: T2, α4β1 integrin (Homo sapiens, UniProt P05556+P13612); assay: U-937 cell adhesion to human VCAM-1 (α4β1 binding assay); assay type: cell-based; conditions: U-937 cells, immobilized human VCAM-1; read-out: IC50 values in the α4β1 assays
T2 construct: endogenous in cells; host or cells: U-937 cells
T2 sequence (P05556 21-798, one chain of several): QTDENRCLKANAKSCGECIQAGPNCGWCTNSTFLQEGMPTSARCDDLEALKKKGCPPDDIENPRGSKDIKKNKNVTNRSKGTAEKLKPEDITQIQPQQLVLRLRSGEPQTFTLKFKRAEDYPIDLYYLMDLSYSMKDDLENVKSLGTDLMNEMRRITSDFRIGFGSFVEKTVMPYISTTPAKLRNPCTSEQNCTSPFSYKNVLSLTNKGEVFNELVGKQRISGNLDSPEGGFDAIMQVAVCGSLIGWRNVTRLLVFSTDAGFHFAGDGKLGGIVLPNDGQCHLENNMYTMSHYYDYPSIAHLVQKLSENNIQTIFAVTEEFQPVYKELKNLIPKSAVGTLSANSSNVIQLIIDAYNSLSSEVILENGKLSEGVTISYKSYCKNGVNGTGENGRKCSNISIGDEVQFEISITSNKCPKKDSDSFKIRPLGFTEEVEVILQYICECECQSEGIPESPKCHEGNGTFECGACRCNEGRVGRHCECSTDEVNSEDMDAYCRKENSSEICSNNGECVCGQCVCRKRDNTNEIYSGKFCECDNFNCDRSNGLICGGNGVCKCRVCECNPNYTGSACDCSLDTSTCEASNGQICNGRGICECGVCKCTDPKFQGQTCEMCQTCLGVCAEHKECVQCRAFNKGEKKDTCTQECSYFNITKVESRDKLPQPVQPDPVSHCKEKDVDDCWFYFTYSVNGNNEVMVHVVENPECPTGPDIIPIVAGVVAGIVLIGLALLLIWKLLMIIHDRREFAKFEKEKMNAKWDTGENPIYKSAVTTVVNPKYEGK
Procedure: U-937 Cell Adhesion to Human VCAM-1 (α4β1 Binding Assay)
Recombinant human soluble VCAM-1 (R&D Systems Ltd., UK) at 2 μg/ml in PBS was immobilized overnight onto microtiter plates. Unbound VCAM-1 was washed away and VCAM-1 coated plates were blocked with bovine serum albumin (BSA) 2,5% in PBS for 2 h at room temperature. U-937 cells were labelled with 5-carboxyfluorescein diacetate (5-CFDA) in order to detect bound cells to the wells. Test compounds were added to the wells followed by U-937 cells and the adhesion assay was performed for 1 h at 37° C. Following incubation, the wells were emptied and washed. Inhibition of binding was measured by the quantity of fluorescence bound to the plate for each of the various concentrations of test compound, as well as for controls containing no test compound, with a Cytofluor 2300 fluorescence measurement system.

[3] = read-out: IC50 values in the α4β7 assays

| IC50 [1, 3] [nM] | IC50 [2] [nM] | Compound | IC50 ([1]; read-out: IC50 values in the α4β7) [nM] |
| --- | --- | --- | --- |
| 1000 to 10000 | < 100 | O=C(Nc1ccccc1S(=O)(=O)N1CCCCC1)N[C@@H](Cc1ccc(NC(=O)c2c(Cl)cccc2Cl)cc1)C(=O)O [Example 38, (S)-3-[4-(2,6-Dichlorobenzoylamino)phenyl]-2-{3-[2-(piperdine-1-sulfonyl)phenyl]ureido}propionic acid] | – |
| 1000 to 10000 | < 100 | CN(C(=O)N[C@@H](Cc1ccc(NC(=O)c2c(Cl)cccc2Cl)cc1)C(=O)O)c1ccccc1S(=O)(=O)N1CCCCC1 [Example 76, (S)-3-[4-(2,6-Dichlorobenzoylamino)phenyl]-2-{3-methyl-3-[2-(piperidine-1-sulfonyl)-phenyl]ureido}propionic acid] | – |

| Compound | IC50 [1, 3] [nM] | IC50 [2] [nM] | IC50 ([1]; read-out: IC50 values in the α4β7) [nM] |
| --- | --- | --- | --- |
| CN(C(=O)c1ccccc1N(CC1CC1)C(=O)N[C@@H](Cc1ccc(NC(=O)c2c(Cl)cncc2Cl)cc1)C(=O)O)C1CCCCC1 [Example 83] | – | < 100 | < 100 |
